These are literature values, as cited in patent US20100086592A1, “MODIFIED DOSAGE FORMS OF TACROLIMUS” (PANACEA BIOTEC LIMITED., priority 2007, published 2010).

Like-named read-outs stand apart in the source and are kept apart here.

The conditions of this data set: oral.

As to `C=CC[C@@H]1/C=C(\C)C[C@H](C)C[C@H](OC)[C@H]2O[C@@](O)(C(=O)C(=O)N3CCCC[C@H]3C(=O)O[C@H](/C(C)=C/[C@@H]3CC[C@@H](O)[C@H](OC)C3)[C@H](C)[C@@H](O)CC1=O)[C@H](C)C[C@@H]2OC` [tacrolimus, Tacrolimus], the absolute bioavailability runs as follows: (adult heart transplantation patients (N=11)) 23±9%; (adult liver transplant patients (N=17)) 22±6%; (healthy volunteers (N=16)) 18±5%.
